The nature of series [1]: (§1) The maximum concentration observed (Cmax) in the blood sample at indicated time point (tmax) at a dose 50 mg/Kg administered orally in mice. It counts as ADME, organism-based. More on the design: dose 50 mg/Kg, route oral. The following applies: mouse, in vivo, po.
Series [2] addresses Mast/stem cell growth factor receptor Kit (Homo sapiens, UniProt P10721). The experiment in a line: Inhibition of Proto-oncogene tyrosine-kinase c-Kit.
Series [3] addresses Platelet-derived growth factor receptor beta (Homo sapiens, UniProt P09619). The experiment in a line: Inhibition of PDGF- beta receptor kinase.
A short description of series [4]: The maximum time reported (tmax) at an oral dose of 50 mg/Kg in mice. It counts as ADME, organism-based. The following applies: mouse, in vivo.
In series [5] the target is Vascular endothelial growth factor receptor 1 (Homo sapiens, UniProt P17948). The experiment in a line: Inhibitory activity against Flt-kinase.
Vascular endothelial growth factor receptor 1, sequence (P17948 whole entry, the tested form may be a part): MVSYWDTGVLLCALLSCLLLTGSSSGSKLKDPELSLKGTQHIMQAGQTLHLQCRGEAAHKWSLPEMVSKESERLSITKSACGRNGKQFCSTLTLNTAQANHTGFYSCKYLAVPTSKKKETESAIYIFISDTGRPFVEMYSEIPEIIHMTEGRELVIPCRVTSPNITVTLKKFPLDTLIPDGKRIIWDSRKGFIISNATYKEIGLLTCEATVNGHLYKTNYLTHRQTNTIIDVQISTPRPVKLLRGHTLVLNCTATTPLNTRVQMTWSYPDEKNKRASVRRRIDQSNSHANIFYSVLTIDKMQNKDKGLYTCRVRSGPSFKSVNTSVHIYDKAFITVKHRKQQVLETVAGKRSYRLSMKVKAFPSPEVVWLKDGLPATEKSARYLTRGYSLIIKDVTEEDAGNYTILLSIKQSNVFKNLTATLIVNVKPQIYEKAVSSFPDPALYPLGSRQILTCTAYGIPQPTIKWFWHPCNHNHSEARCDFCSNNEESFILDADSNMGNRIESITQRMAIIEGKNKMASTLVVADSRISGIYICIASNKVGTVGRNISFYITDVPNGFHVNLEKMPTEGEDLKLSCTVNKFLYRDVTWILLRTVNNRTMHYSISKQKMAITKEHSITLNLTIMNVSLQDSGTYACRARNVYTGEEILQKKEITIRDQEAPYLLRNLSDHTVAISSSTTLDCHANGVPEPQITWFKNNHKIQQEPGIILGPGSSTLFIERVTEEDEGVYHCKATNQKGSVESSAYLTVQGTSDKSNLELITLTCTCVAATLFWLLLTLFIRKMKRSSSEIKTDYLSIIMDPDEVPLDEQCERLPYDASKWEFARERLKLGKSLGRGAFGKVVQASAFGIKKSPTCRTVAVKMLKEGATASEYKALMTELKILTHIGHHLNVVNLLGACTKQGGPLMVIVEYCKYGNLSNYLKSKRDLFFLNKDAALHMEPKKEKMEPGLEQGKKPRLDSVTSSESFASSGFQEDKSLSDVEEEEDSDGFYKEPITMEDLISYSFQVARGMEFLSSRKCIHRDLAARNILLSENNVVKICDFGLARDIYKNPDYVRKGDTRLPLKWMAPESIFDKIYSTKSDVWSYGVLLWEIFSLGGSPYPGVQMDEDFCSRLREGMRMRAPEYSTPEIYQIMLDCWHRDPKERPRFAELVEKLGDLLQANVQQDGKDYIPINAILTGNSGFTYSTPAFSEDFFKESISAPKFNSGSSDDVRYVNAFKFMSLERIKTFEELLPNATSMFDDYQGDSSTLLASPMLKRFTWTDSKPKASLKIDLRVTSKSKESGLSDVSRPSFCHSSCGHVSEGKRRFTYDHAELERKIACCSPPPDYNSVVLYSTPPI
For series [6], the target named is T1, Vascular endothelial growth factor receptor 2 (Homo sapiens, UniProt P35968). The experiment in a line: Inhibitory activity against kinase domain containing receptor (KDR/VEGFR2).
T1 sequence (P35968 whole entry, the tested form may be a part): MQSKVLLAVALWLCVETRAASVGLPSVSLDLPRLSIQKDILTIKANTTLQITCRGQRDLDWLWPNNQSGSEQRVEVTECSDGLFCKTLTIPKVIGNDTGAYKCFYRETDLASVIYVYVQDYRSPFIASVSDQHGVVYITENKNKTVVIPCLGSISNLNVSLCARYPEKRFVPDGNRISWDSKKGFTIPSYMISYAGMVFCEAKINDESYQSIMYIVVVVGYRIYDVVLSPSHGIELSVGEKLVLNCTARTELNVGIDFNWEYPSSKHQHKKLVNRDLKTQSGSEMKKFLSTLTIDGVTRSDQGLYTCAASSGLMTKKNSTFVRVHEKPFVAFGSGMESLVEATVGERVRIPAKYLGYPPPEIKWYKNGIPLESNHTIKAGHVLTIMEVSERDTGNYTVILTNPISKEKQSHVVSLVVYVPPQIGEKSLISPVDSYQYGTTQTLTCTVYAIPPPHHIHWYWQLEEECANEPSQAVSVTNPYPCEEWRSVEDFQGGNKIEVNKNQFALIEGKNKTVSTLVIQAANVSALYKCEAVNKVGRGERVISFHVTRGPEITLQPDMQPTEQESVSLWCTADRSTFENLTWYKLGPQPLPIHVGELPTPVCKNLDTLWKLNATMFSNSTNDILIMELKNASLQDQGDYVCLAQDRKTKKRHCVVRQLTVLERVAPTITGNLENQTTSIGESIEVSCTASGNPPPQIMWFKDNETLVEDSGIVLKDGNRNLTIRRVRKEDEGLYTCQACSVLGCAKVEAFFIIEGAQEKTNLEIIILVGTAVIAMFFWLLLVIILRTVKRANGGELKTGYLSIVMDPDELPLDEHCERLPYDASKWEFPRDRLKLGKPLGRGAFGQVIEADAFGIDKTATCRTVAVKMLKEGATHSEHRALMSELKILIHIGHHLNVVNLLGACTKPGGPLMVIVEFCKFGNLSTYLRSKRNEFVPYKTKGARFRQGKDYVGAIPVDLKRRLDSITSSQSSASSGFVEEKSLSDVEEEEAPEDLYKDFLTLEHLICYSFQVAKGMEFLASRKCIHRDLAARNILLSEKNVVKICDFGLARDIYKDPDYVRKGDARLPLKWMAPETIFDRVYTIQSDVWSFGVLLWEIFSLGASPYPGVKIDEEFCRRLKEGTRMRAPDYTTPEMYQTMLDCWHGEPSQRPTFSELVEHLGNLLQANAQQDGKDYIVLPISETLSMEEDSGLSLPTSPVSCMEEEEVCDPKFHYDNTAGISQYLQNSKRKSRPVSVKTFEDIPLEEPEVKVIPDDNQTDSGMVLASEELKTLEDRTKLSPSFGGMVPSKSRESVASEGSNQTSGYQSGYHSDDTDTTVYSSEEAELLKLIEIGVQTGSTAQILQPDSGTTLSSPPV
The target in series [7] is T1, Vascular endothelial growth factor receptor 2. Conditions: CHO.
Series [8] relates to Mus musculus. Described as §1. It counts as ADME, organism-based. Details: dose 50 mg/Kg, route oral. Conditions: in vivo, po.

Each structure is given as a SMILES string. pIC50: −log10 of the molar value. A value given as a limit tells only on which side of the number the result lay.

From ChEMBL document CHEMBL1133741, “New anilinophthalazines as potent and orally well absorbed inhibitors of the VEGF receptor tyrosine kinases useful as antagonists of tumor-driven angiogenesis” (J Med Chem, 2000) come the findings set out here.

Broadly, the Cmax is the maximum level reached in the sampled fluid or tissue. The term pIC50 denotes −log10 of the IC50, conventionally taken in molar units. The low end stands for a large IC50, the high end for a small IC50. Usually Tmax stands for the time at which the peak concentration occurs.

Mast/stem cell growth factor receptor Kit, sequence (P10721 whole entry): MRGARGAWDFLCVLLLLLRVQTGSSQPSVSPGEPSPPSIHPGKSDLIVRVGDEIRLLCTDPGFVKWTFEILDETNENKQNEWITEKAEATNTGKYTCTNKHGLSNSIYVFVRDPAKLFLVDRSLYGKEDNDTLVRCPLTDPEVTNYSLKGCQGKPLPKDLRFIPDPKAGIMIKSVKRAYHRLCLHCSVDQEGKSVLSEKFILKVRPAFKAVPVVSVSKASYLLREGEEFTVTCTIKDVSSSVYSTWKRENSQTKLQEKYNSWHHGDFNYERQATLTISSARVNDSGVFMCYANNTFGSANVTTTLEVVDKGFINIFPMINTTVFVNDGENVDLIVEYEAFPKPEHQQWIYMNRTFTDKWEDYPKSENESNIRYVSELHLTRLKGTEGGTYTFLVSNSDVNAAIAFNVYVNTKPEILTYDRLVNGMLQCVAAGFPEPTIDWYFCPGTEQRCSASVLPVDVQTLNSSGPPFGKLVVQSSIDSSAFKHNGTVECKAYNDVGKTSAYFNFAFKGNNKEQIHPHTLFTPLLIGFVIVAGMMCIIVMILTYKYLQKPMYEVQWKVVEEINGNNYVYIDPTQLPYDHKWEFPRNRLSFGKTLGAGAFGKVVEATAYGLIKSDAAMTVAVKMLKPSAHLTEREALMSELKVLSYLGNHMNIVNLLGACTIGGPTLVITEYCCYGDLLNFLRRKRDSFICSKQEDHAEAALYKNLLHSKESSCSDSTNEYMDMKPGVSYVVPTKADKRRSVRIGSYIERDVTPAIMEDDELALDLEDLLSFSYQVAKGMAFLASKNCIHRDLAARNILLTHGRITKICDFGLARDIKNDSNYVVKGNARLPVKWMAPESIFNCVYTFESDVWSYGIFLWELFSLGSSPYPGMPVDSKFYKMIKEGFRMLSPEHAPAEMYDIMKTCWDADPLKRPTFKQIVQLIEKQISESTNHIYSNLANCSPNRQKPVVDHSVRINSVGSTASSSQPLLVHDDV
Platelet-derived growth factor receptor beta, sequence (P09619 whole entry): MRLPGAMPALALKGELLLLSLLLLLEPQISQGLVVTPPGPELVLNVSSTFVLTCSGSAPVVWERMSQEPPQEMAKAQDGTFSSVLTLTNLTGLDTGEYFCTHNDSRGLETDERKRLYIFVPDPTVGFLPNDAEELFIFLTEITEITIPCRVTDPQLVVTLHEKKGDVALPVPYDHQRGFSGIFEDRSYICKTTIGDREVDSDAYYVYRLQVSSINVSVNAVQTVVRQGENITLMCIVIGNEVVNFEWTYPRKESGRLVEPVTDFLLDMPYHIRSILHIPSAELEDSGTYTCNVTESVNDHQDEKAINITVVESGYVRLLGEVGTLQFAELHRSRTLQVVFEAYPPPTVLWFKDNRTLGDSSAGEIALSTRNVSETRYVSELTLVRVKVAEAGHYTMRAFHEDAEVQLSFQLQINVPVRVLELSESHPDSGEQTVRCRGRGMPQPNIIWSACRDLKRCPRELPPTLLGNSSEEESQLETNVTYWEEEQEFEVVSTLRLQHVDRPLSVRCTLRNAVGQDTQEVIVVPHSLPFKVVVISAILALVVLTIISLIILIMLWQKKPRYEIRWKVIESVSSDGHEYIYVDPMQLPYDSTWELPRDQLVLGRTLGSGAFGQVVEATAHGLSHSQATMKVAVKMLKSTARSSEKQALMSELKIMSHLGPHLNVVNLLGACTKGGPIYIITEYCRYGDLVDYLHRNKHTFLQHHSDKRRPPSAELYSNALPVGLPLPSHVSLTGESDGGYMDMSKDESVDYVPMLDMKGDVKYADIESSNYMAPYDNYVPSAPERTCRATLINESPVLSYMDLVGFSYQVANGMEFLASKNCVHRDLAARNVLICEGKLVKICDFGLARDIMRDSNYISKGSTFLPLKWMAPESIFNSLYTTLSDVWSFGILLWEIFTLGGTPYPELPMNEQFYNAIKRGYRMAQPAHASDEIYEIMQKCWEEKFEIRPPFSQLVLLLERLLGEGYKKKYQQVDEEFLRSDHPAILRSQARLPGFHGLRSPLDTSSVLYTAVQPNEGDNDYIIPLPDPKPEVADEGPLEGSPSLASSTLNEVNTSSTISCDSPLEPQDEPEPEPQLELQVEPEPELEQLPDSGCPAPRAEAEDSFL

Take `Oc1cccc(Nc2nnc(Cc3ccncc3)c3ccccc23)c1`: the highest level in series [1] (Cmax) was 0.5 µM. In addition, the negative logarithm of the IC50 (pIC50) was 5.10 in series [2] and 5.40 in series [3]. Also, in series [4], the Tmax was 30 min.
Regarding `Clc1ccc(Nc2nnc(NCc3ccncc3)c3ccccc23)cc1`, the pIC50 in series [5] is 5.59; in series [6] it was 5.33.
For the molecule `Cc1cc(Cc2nnc(Nc3ccc(Cl)cc3)c3ccccc23)ccn1`, in series [6], the pIC50 was 6.62.
As to `Clc1ccc(Nc2nnc(Cc3cccnc3)c3ccccc23)cc1`, the negative logarithm of the IC50 (pIC50) in series [5] is 5.01; in series [6], less than 5.00.
For `Clc1ccc(Nc2nnc(Cc3ccncc3)c3cccnc23)cc1`, the negative logarithm of the IC50 (pIC50) in series [5] is 5.77.
`FC(F)(F)c1cc(Nc2nnc(Cc3ccncc3)c3ccccc23)ccc1Cl` registered a maximum concentration (Cmax) in series [1] of 7.6 µM. Besides, the figures for the pIC50 in series [5], in series [2] and in series [3] were 6.22, 5.57 and 5.40, respectively. Moreover, the Tmax in series [4] is 120 min.
Regarding `Fc1cc(Nc2nnc(Cc3ccncc3)c3ccccc23)cc(C(F)(F)F)c1`, the negative-log IC50 (pIC50) is 6.46 in series [5], 6.70 in series [6], less than 5.00 in series [2] and less than 5.00 in series [3]. In series [7], this molecule yielded an ED50 of 40 nM.
The molecule `CC(C)(C)c1ccc(Nc2nnc(Cc3ccncc3)c3ccccc23)cc1` had a Cmax in series [1] of 25.6 µM. For the same molecule, the pIC50 in series [2] is 6.00; in series [3] it was 5.70. In series [4], the time of peak concentration (Tmax) was 30 min.
As to `Cc1cc(C)c(/C=C2\C(=O)Nc3ccccc32)[nH]1` [SEMAXANIB], the concentration in series [8] peaked (Cmax) at 0.3 µM. In series [7], this molecule came in with an ED50 of 930 nM. For the same molecule, the Tmax in series [4] is 30 min.
Turning to `Clc1ccc(Nc2nnc(Cc3ccncn3)c3ccccc23)cc1`, the pIC50 is 6.12 in series [5] and 6.39 in series [6].
`Clc1ccc(Nc2nnc(Cc3ccncc3)c3ccncc23)cc1` gave a negative-log IC50 (pIC50) in series [5] of 6.33.
In series [5], `Nc1ccc2c(Cc3ccncc3)nnc(Nc3ccc(Cl)cc3)c2c1` gave a negative logarithm of the IC50 (pIC50) of 6.19. The pIC50 values of the last two molecules are within 0.2 log units of each other.
For the molecule `CC(c1ccncc1)c1nnc(Nc2ccc(Cl)cc2)c2ccccc12` (centres undefined), the values for the pIC50 in series [5] and in series [6] were 6.38 and 6.68, respectively.
In the case of `c1ccc(Nc2nnc(Cc3ccncc3)c3ccccc23)cc1`, the pIC50 in series [2] was less than 5.00; in series [3], 5.55.
Regarding `FC(F)(F)c1cc(Br)cc(Nc2nnc(Cc3ccncc3)c3ccccc23)c1`, the highest concentration (Cmax) in series [1] was 6 µM. For the same molecule, the pIC50 in series [5] was 6.22; in series [6] it was 6.42; in series [2], less than 5.00; in series [3] it was less than 5.00. The ED50 in series [7] was 39 nM. For the same molecule, in series [4], the Tmax is 120 min.
`COc1cccc(Nc2nnc(Cc3ccncc3)c3ccccc23)c1` yielded a Cmax in series [1] of 21 µM. The negative logarithm of the IC50 (pIC50) is 5.52 in series [2] and 6.10 in series [3]. The time of peak concentration (Tmax) in series [4] is 30 min.
`Cc1c(Cc2ccncc2)nnc(Nc2ccc(Cl)cc2)c1C` showed a pIC50 in series [5] of 6.59.
Regarding `CN(c1ccc(Cl)cc1)c1nnc(Cc2ccncc2)c2ccccc12`, the pIC50 in series [5] is 5.64; in series [6], 5.46.
The molecule `Cc1cccc(Nc2nnc(Cc3ccncc3)c3ccccc23)c1` came in with a Cmax in series [1] of 13 µM. Moreover, the pIC50 in series [5] was 7.40; in series [6], 7.10; in series [2], 5.60; in series [3], 6.00. For the same molecule, the ED50 in series [7] came to 8 nM. For the same molecule, in series [4], the Tmax was 30 min.
Regarding `Clc1ccc(Nc2nnc(Cc3ccccn3)c3ccccc23)cc1`, the pIC50 in series [5] and in series [6] was less than 5.00 throughout.
Regarding `Clc1ccc(Nc2nnc(Cc3ccncc3)c3cnccc23)cc1`, the negative logarithm of the IC50 (pIC50) in series [5] is 6.64; in series [6] it was 6.21.
For `c1ccc(-c2ccc(Nc3nnc(Cc4ccncc4)c4ccccc34)cc2)cc1`, the negative logarithm of the IC50 (pIC50) in series [2] and in series [3] was 5.85 in each case.
As for `Cc1cc(C)cc(Nc2nnc(Cc3ccncc3)c3ccccc23)c1`, the Cmax in series [1] amounted to 10 µM. In addition, the negative-log IC50 (pIC50) was 6.82 in series [5], 7.40 in series [6], 5.70 in series [2] and 6.10 in series [3]. The molecule also returned an ED50 in series [7] of 10 nM. The Tmax in series [4] is 30 min.
For the molecule `Clc1ccc(Nc2nnc(Cc3ccncc3)c3ncccc23)cc1`, the pIC50 in series [5] is 6.62.
As to `Cc1cc(Cc2nnc(Nc3ccc(Cl)cc3)c3ccccc23)cc(C)n1`, the negative logarithm of the IC50 (pIC50) in series [5] and in series [6] was less than 5.00 throughout.
Take `Clc1ccc(Oc2nnc(Cc3ccncc3)c3ccccc23)cc1`: the results for the negative-log IC50 (pIC50) in series [5] and in series [6] were 7.22 and 5.80, respectively.
Turning to `COc1cc(Nc2nnc(Cc3ccncc3)c3ccccc23)ccc1Cl`, the peak concentration (Cmax) in series [1] came out at 8 µM. Besides, the pIC50 is 6.59 in series [5], 5.46 in series [2] and 5.70 in series [3]. For the same molecule, in series [4], the Tmax was 30 min.
Take `Clc1ccc(Sc2nnc(Cc3ccncc3)c3ccccc23)cc1`: the pIC50 in series [5] is 7.15; in series [6], 5.89.
`Clc1ccc(Nc2nnc(Cc3ccncc3)c3ccccc23)cc1Cl`: the concentration in series [1] peaked (Cmax) at 9.8 µM. Also, the pIC50 is 7.15 in series [5], 7.52 in series [6], 6.15 in series [2] and 6.22 in series [3]. Besides, the ED50 in series [7] came to 27 nM. Besides, in series [4], the Tmax was 30 min.
In the case of `Cc1ccc2c(Cc3ccncc3)nnc(Nc3ccc(Cl)cc3)c2c1`, the negative logarithm of the IC50 (pIC50) is 5.52 in series [5] and 5.33 in series [6].
Take `Clc1ccc(Nc2nnc(Cc3ccncc3)c3c2CCCC3)cc1`: the negative-log IC50 (pIC50) in series [5] was 5.44; in series [6], less than 5.00.
`Clc1ccc(Nc2nnc(Cc3ccncc3)c3ccccc23)cc1.O=C(O)CCC(=O)O` yielded a Cmax in series [1] of 32 µM. Further, the Tmax in series [4] is 15 min.
